Measured values from patent US8329222B1, “Magnetic nanomedicine for tumor suppression and therapy” (priority 2011, dated 2012).

Legend:
[1] = tested on: human bladder tumor cells (MGH-U1); assay: XTT growth suppression test on bladder tumor cells; type: cell-based; settings: cultivated with MGH-U1 for 27 hours, no magnetic field, read-out: cell growth inhibit efficiency
Description: Cell Cultivation: Place 150 μL of a mixture liquid containing 10,000 human bladder tumor cells (MGH-U1) into each well of 96-well culture plate. Place the culture plate in a humidified incubator in a temperature of 37° C. and with 5% CO2 to enable adherent growth of the cells.
Agent Addition: 24 hours later, mix separately MNPs (concentration 600 μg/mL) EPI (concentrations 2, 5, 10 μM), and EPI/SPAnH/MNPs magnetic nanomedicine (concentrations 2, 5, 10 μM) with a RPMI1640 medium to form mixed solutions. Add respectively 50 μL of the mixed solutions to well, and then place the culture plate in a humidified incubator having 5% CO2 for 2, 4, 6, 10, and 27 hours.
Cell Counting: Remove RPMI1640 medium in the well and add 120 μL of an XTT reaction liquid (2,3-Bis(2-methoxy-4-nitro-5-sulfophenyl)-2H-tetrazolium-5-carboxanilide inner salt) to the wells. Use an ELISA reader (BIO-TEK, model EL 808) to measure the OD (Optical Density) values of each cell at a wavelength of 490 nm to determine the toxicity of SPAnH/MNPs magnetic nanocomposite and the cell-killing rate of EPI/SPAnH/MNPs magnetic nanomedicines to the bladder tumor cells.
Cell Cultivation: Place 150 μL of a mixture liquid containing 10,000 human bladder tumor cells (MGH-U1) into each well of 96-well culture plate. […]

[2] = tested on: bladder tumor cells MGH-U1; assay: Fluorescence microscopy of cell entry after 4 hours; type: cell-based, human; settings: reacted 4 hours, fluorescent microscope photos
Description: Add 2 mL of a mixture liquid containing 20,000 bladder tumor cells MGH-U1 to a 3.5 cm diameter cultivation plate. Place the cultivation plate in a humidified incubator having 5% CO2 in a temperature of 37° C. to enable adherent growth of the cells. Twenty-four hours later, add to the cultivation plate, 100 μL of RPMI1640 medium containing EPI, EPI/SPAnH/MNPs magnetic nanomedicine, DOX, and DOX/SPAnH/MNPs magnetic nanomedicine to react for 4 hours, then flush it with 1 mL of Hanks' balance slat solution (HBSS).

Row | Structure (SMILES) | inhibition at 10 µM [1] [%] | entry into bladder tumor cell MGH-U1 [2]
1 | COc1cccc2c1C(=O)c1c(O)c3c(c(O)c1C2=O)C[C@@](O)(C(=O)CO)C[C@@H]3O[C@H]1C[C@H](N)[C@H](O)[C@H](C)O1 [DOX, Doxorubicin] | 66.2 | do enter into the bladder tumor cell MGH-U1
2 | COc1cccc2c1C(=O)c1c(O)c3c(c(O)c1C2=O)C[C@@](O)(C(=O)CO)C[C@@H]3O[C@H]1C[C@H](N)[C@@H](O)[C@H](C)O1 [EPI, Epirubicin] | 64.3 | do enter into the bladder tumor cell MGH-U1
